Measurements from patent publication US20060024708A1, “Porcine sulfotransferase 2A1 polynucleotide sequence, protein, and methods of use for same” (UNIVERSITY OF GUELPH, priority 2004, published 2006).

Key:
rat SULT2A1 gene = conditions: Makishima et al., 1999; cited from earlier work
HST = conditions: Okuda et al., 1989; Singer et al., 1984; cited from earlier work
Leydig cells = experiment: Viability of isolated Leydig cells (trypan blue exclusion test); assay type: cell-based, boar; conditions: 100 μM, 8 h of exposure
Method: After the slaughter of group A boars, bulbourethral glands were removed and measured for length. A backfat sample was removed from the midline on the point of the 11th rib and frozen at −20° C. until assayed for 5α-androstenone. Testes samples were obtained from five randomly selected animals immediately after slaughter. Testes were transported to the laboratory within five minutes of their removal from the boar. One testis was dissected free from the epididymis, cut longitudinally, and decapsulated. The tissue was sliced and 100 g of tissue was incubated for 12 min in a shaking water bath at 37° C. with 1 mg/mL collagenase (type 1A), 50 μg/mL trypsin inhibitor, and 50 μg/mL DNase in 250 mL of Williams Media E containing 1 g/L bovine serum albumin and 0.1 g/L L-glutamine. Purified Leydig cells were obtained by layering the collagenase dispersed cells onto discontinuous Percoll gradients (Raeside and Renaud, 1983). Cell viability was determined with a trypan blue exclusion test. The typical viability of the isolated Leydig cells was 90%.
Purified Leydig cells were resuspended (50×10^6 cells/incubation) into a final volume of 25 ml of Williams Media E mixture. […] The sulfotransferase activity towards 5α-androstenone was determined by HPLC analysis of extracted 5 ml media aliquots.

[1] = test system: sulfotransferase activity towards 5α-androstenone in Leydig cells; experiment: Inhibition studies: production of sulfoconjugated 16-androstene steroids from radiolabelled pregnenolone by purified Leydig cells; assay type: cell-based, boar; conditions: for production of sulfoconjugated 16-androstene steroids from pregnenolone: 8 hours, 0, 5, 10, 50 or 100 μM inhibitor
Method: Purified Leydig cells were resuspended (50×10^6 cells/incubation) into a final volume of 25 ml of Williams Media E mixture. Radiolabelled [7-^3H(N)]-pregnenolone (3.4μCi/μmol) was added as a substrate to give a final concentration of 0.4 μmol/incubation. Leydig cells were incubated for a total of 8 hours at 37° C. under 95%:5% CO2 atmosphere at in a Dubnoff shaking waterbath in the presence of 0, 5, 10, 50, or 100 μM of various sulfotransferase inhibitors. 8 hour incubations were used, as this is an optimal time-point for steroid conjugation under these conditions. […] Estrone was used as an EST-inhibitor. The sulfotransferase activity towards 5α-androstenone was determined by HPLC analysis of extracted 5 ml media aliquots.
Prior to analysis, conjugated steroids were separated from unconjugated steroids with the use of Sep-Pak C18 solid-phase chromatography cartridges as described previously (Raeside et al., 1997). After separation, the conjugate fraction was hydrolyzed overnight in trifluroacetic acid/ethyl acetate (1/100 v/v) at 45° C. in order to liberate the sulfoconjugated steroids (Raeside et al., 1999b). The solvolyzed steroids were then re-extracted by solid-phase chromatography. Enzyme hydrolysis was performed on the remaining conjugated material present after solvolysis with 1250 units of β-glucuronidase (type B-1, from bovine liver), and incubated overnight at 37° C.
The unconjugated and hydrolyzed steroids from the inhibition studies were analyzed by HPLC using the same protocol as stated above; however; radiolabelled steroids were measured on-line with a Canberra-Packard 500TR flow scintillation analyzer.

Structure (SMILES): C[C@H](CCC(=O)O)[C@H]1CC[C@H]2[C@@H]3[C@H](O)C[C@@H]4C[C@H](O)CC[C@]4(C)[C@H]3CC[C@]12C [Chenodeoxycholic acid]
- induction of the rat SULT2A1 gene (rat SULT2A1 gene): strong inducer

Structure (SMILES): Oc1c(Cl)c(Cl)c(Cl)c(Cl)c1Cl [PCP, Pentachlorophenol]
- inhibition of HST (HST): does not inhibit
- viability of the Leydig cells (Leydig cells): less than 50%
- production of sulfoconjugated 16-androstene steroids from pregnenolone ([1]; Leydig cells): no effect

Structure (SMILES): CCN(CC)CC [Triethylamine]
- viability of the Leydig cells (Leydig cells): 85%
- production of the unconjugated forms of the 16-androstene steroids ([1]; Leydig cells treated with inhibitor, 8 hours): increased production
- production of sulfoconjugated 16-androstene steroids from pregnenolone ([1]; Leydig cells): decreased production
- production of sulfoconjugated 16-androstene steroids at the 100 μM level ([1]; Leydig cells, 8 hours, 100 μM inhibitor): near zero levels
